Measured values from PubChem BioAssay (NCI).
Values joined by “and” are separate entries in the source; they are usually repeats but may differ in a detail not shown here. Identical values can stand only once.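 Exposure lasted 48 hours, with cells grown in 96-well plates and compounds tested at five concentrations. Here, GI50 denotes the concentration required for 50% inhibition of growth. The concentration for full growth arrest is given as TGI.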 Where a SMILES comes first, the peptide text is derived from it. [ ]: non-standard residue; d: D form. The star is where a group is joined. AllylGly = C=CC[CH](N)C(=O)O; Boc = CC(C)(C)OC(=O)*; OtBu = CC(C)(C)O*

How the values were obtained:
Experiment in all cases: inhibition of tumour cell growth, NCI panel, 48 h
HCT-116 colon = tested on: HCT-116 colon
MALME-3M melanoma = tested on: MALME-3M melanoma
SK-MEL-28 melanoma = tested on: SK-MEL-28 melanoma
ACHN renal = tested on: ACHN renal
SN12C renal = tested on: SN12C renal
SK-MEL-2 melanoma = tested on: SK-MEL-2 melanoma
SF-268 CNS = tested on: SF-268 CNS
SK-MEL-5 melanoma = tested on: SK-MEL-5 melanoma
SR leukemia = tested on: SR leukemia
HOP-62 NSCLC = tested on: HOP-62 NSCLC

Structure (SMILES) | TGI (HCT-116 colon) | TGI (MALME-3M melanoma) | TGI (SK-MEL-28 melanoma) | TGI (ACHN renal) | TGI (SN12C renal) | TGI (SK-MEL-2 melanoma) | TGI (SF-268 CNS) | TGI (SK-MEL-5 melanoma) | TGI (SR leukemia) | TGI (HOP-62 NSCLC) | GI50 (SK-MEL-2 melanoma) | GI50 (SF-268 CNS)
O=c1cc(N2CCOCC2)[nH]c(=O)n1-c1cccc(C(F)(F)F)c1 | > 100 µM | > 100 µM | > 100 µM | > 100 µM | > 100 µM | > 100 µM | > 100 µM | > 100 µM | > 100 µM | > 100 µM |  | 
COC(=O)C(CCCC1(c2ccccc2)OCCO1)C(C)=O (configuration not stated) | > 100 µM | > 100 µM | > 100 µM | > 100 µM | > 100 µM | > 100 µM | > 100 µM | > 100 µM | > 100 µM | > 100 µM |  | 
C=CCC(NC(=O)C(CC(=O)OC(C)(C)C)NC(=O)OC(C)(C)C)C(=O)OC (configuration not stated) (Boc-Asp(OtBu)-[AllylGly]-OMe; configuration not given here) | > 100 µM | 3.04 µM | > 100 µM | > 100 µM | > 100 µM | > 100 µM | > 100 µM | > 57.3 µM | > 100 µM | > 100 µM |  | 
O=c1[nH]c(Nc2cccc(C(F)(F)F)c2)nc2nc[nH]c12 | > 100 µM | > 100 µM | > 100 µM | > 100 µM | > 100 µM | > 100 µM | > 100 µM | > 100 µM | > 100 µM | > 100 µM |  | 
C[C@H](Nc1c(O)c2c(c(O)c1Cl)C(=O)C=CC2=O)C(=O)Nc1ccc([N+](=O)[O-])cc1 | 2.7 µM | 2.41 µM | 4.02 µM | 9.31 µM | 2.99 µM | 9.1 µM | 5.79 µM | 3.14 µM | > 10 µM | 6.74 µM |  | 
CC(=O)C(=[N+]=[N-])C(=O)OC(C)(C)C#N | > 10 µM | > 10 µM | > 10 µM | > 10 µM | > 10 µM | > 10 µM | > 10 µM | > 10 µM | > 10 µM | > 10 µM |  | 
CN(NC(=O)CCCl)C1=NCCN1 | > 100 µM | > 100 µM | > 100 µM | > 100 µM | > 100 µM | > 100 µM | > 100 µM | > 100 µM | > 100 µM | > 100 µM |  | 
Cc1cccc2c1Oc1ccccc1C2NC(=O)c1ccc([N+](=O)[O-])cc1 (configuration not stated) | > 100 µM | > 100 µM | > 100 µM | > 100 µM | 91 µM | > 100 µM | > 100 µM | > 100 µM | > 100 µM | > 100 µM |  | 
COC(=O)C1=C(C(=O)OC)C2(OC(C)=O)c3ccccc3-c3ccccc3C12 (configuration not stated) | 7.98 µM | 5.83 µM | 11.9 µM | 6.48 µM | 9.28 µM | 29.2 µM | 22 µM | 27.3 µM | 16.5 µM | 48.3 µM |  | 
O=C(NNC(=S)Nc1ccccc1)c1ccccc1Nc1ccccc1C(=O)NNC(=S)Nc1ccccc1 | 35.5 µM | 52.3 µM | > 100 µM | > 100 µM | 57.9 µM | 47.1 µM | 60.6 µM | 58.2 µM | > 100 µM | 60.7 µM |  | 
CC1(C)CC[C@]2(C)CC=C3[C@]4(C)CC[C@H]5C(C)(C)C(=O)CC[C@]5(C)[C@H]4CC[C@@]3(C)[C@H]2C1 | > 100 µM | > 100 µM | > 100 µM | > 100 µM | > 100 µM | > 100 µM | > 100 µM | > 100 µM | > 100 µM | > 100 µM |  | 
CC1(C)N=C(C(N)=O)c2ncn(-c3ccccc3)c2N1 | > 100 µM | > 100 µM | > 100 µM | > 100 µM | > 100 µM | > 100 µM | > 100 µM | > 100 µM | > 100 µM | > 100 µM |  | 
O=C1C(/C=C/c2ccc(Cl)cc2)=NNC2N1N=C1NC(=O)C3(NN12)c1ccccc1-c1ccccc13 (configuration not stated) | > 100 µM | > 100 µM | > 100 µM | > 100 µM | > 100 µM | > 100 µM | > 100 µM | > 100 µM | 60.3 µM | > 100 µM |  | 
CCCCC(=O)Nc1ccc2cc(C(=O)OC)c(ON3C(=O)c4ccccc4C3=O)nc2n1 | 45.9 µM | 38.5 µM | 53.5 µM | > 100 µM | > 100 µM | > 100 µM | 81.2 µM | > 100 µM | > 100 µM | 37.6 µM |  | 
O=C1C(CN2CCCCC2)CCCC1CN1CCCCC1 (configuration not stated) | 27.6 µM and 29 µM | 11.4 µM and 14.8 µM | 18.4 µM and 31.7 µM | 34 µM and 39.3 µM | > 31.6 µM and 48.7 µM | > 100 µM and 48.4 µM | > 100 µM | > 31.6 µM and 47.6 µM | 43.9 µM and 47.2 µM | > 100 µM | > 83.2 µM and 31.9 µM | > 89.2 µM
O=C(/C=C/c1ccc(Cl)cc1)Oc1ccc(/C=C2\CCCCC2=O)cc1 | > 100 µM | > 100 µM | > 100 µM | > 100 µM | > 100 µM | > 100 µM | > 100 µM | > 100 µM | > 100 µM | > 100 µM |  | 
Nc1nc(SCCNC(=O)CCc2ccc(O)cc2)nc2c1ncn2C1OC(CO)C(O)C1O (configuration not stated) | > 203 µM | > 203 µM | > 203 µM | > 203 µM | > 203 µM | > 203 µM | > 203 µM | > 203 µM | > 203 µM | > 203 µM |  | 
CC1(c2nc3cc(Cl)c(Cl)cc3[nH]2)CCC(CO)C(C)(C)O1 (configuration not stated) | > 100 µM | 84 µM | 92 µM | > 100 µM | > 100 µM | 90.4 µM | > 100 µM | 27.1 µM | > 100 µM | > 100 µM |  | 
